According to the NIST ThermoML archive (doi:10.1007/s10765-010-0766-0):
“And” between values parts separate entries of the source, which are not always exact repeats. Equal values may be shown once.

Test: molar heat capacity at constant volume
Conditions: Liquid, Vacuum adiabatic calorimetry

FC(F)C(F)(F)OCC(F)(F)F [2,2,2-trifluoroethyl 1,1,2,2-tetrafluoroethyl ether]
Conditions	molar heat capacity at constant volume
342.15 K, 16809 kPa	207.06 J/K/mol
342.15 K, 16812 kPa	204.66 J/K/mol
343.15 K, 17505 kPa	207.06 J/K/mol
343.15 K, 17508 kPa	209.46 J/K/mol
344.15 K, 18201 kPa	208.46 J/K/mol
344.15 K, 18203 kPa	206.86 J/K/mol
345.15 K, 18896 kPa	207.66 J/K/mol
345.15 K, 18898 kPa	208.46 J/K/mol
346.15 K, 19590 kPa	208.86 J/K/mol
346.15 K, 19592 kPa	209.46 J/K/mol
347.15 K, 20282 kPa	208.46 J/K/mol
347.15 K, 20287 kPa	209.26 J/K/mol
348.15 K, 20974 kPa	209.86 J/K/mol
348.15 K, 20978 kPa	208.06 J/K/mol
349.15 K, 21666 kPa	210.06 J/K/mol
349.15 K, 21671 kPa	208.66 J/K/mol
350.15 K, 22357 kPa	208.66 J/K/mol
350.15 K, 22360 kPa	209.86 J/K/mol
351.15 K, 23047 kPa	209.86 J/K/mol
351.15 K, 23050 kPa	209.26 J/K/mol
352.15 K, 23735 kPa	210.86 J/K/mol
352.15 K, 23739 kPa	210.46 J/K/mol
353.15 K, 24423 kPa	210.26 J/K/mol
353.15 K, 24426 kPa	208.06 J/K/mol
354.15 K, 25110 kPa	210.86 J/K/mol
354.15 K, 25114 kPa	212.46 J/K/mol
355.15 K, 25797 kPa	211.06 J/K/mol
355.15 K, 25801 kPa	209.46 J/K/mol
356.15 K, 26482 kPa	211.86 J/K/mol
356.15 K, 26486 kPa	212.66 J/K/mol
357.15 K, 27166 kPa	211.26 J/K/mol
357.15 K, 27171 kPa	210.26 J/K/mol
358.15 K, 27851 kPa	212.26 J/K/mol
358.15 K, 27855 kPa	211.46 J/K/mol
359.15 K, 5632 kPa	208.86 J/K/mol
359.15 K, 5637 kPa	212.66 J/K/mol
359.15 K, 28535 kPa	212.86 J/K/mol
359.15 K, 28538 kPa	210.46 J/K/mol
360.15 K, 6174 kPa	219.66 J/K/mol
360.15 K, 6180 kPa	217.06 J/K/mol
360.15 K, 29217 kPa	214.06 J/K/mol
360.15 K, 29220 kPa	212.66 J/K/mol
361.15 K, 6718 kPa	218.26 J/K/mol
361.15 K, 6724 kPa	216.66 J/K/mol
361.15 K, 29899 kPa	213.46 J/K/mol
361.15 K, 29902 kPa	211.26 J/K/mol
362.15 K, 7261 kPa	215.86 J/K/mol
362.15 K, 7266 kPa	216.46 J/K/mol
363.15 K, 7803 kPa	218.26 J/K/mol
363.15 K, 7809 kPa	215.46 J/K/mol
364.15 K, 8346 kPa	219.06 J/K/mol
364.15 K, 8350 kPa	216.06 J/K/mol
365.15 K, 8888 kPa	216.66 J/K/mol
365.15 K, 8892 kPa	215.86 J/K/mol
366.15 K, 9430 kPa	217.86 J/K/mol
366.15 K, 9434 kPa	216.86 J/K/mol
367.15 K, 9971 kPa	217.46 J/K/mol
367.15 K, 9976 kPa	214.46 J/K/mol
368.15 K, 10512 kPa	219.06 J/K/mol
368.15 K, 10516 kPa	216.46 J/K/mol
369.15 K, 11053 kPa	221.26 J/K/mol
369.15 K, 11057 kPa	217.06 J/K/mol
370.15 K, 11593 kPa	218.86 J/K/mol
370.15 K, 11598 kPa	217.46 J/K/mol
371.15 K, 12133 kPa	218.66 J/K/mol
371.15 K, 12137 kPa	218.86 J/K/mol
372.15 K, 12673 kPa	218.86 J/K/mol
372.15 K, 12677 kPa	215.86 J/K/mol
373.15 K, 13212 kPa	219.66 J/K/mol
373.15 K, 13216 kPa	217.86 J/K/mol
374.15 K, 13752 kPa	219.46 J/K/mol
374.15 K, 13756 kPa	217.66 J/K/mol
375.15 K, 14290 kPa	217.86 J/K/mol
375.15 K, 14294 kPa	219.06 J/K/mol
376.15 K, 14828 kPa	220.86 J/K/mol
376.15 K, 14831 kPa	218.86 J/K/mol
377.15 K, 15366 kPa	220.06 J/K/mol
377.15 K, 15369 kPa	218.46 J/K/mol
378.15 K, 15904 kPa	218.46 J/K/mol
378.15 K, 15906 kPa	219.66 J/K/mol
379.15 K, 16441 kPa	218.86 J/K/mol
379.15 K, 16443 kPa	219.86 J/K/mol
380.15 K, 16977 kPa	219.26 J/K/mol
380.15 K, 16980 kPa	219.46 J/K/mol
381.15 K, 17514 kPa	219.26 J/K/mol
381.15 K, 17515 kPa	217.26 J/K/mol
382.15 K, 18050 kPa	219.86 J/K/mol
382.15 K, 18051 kPa	219.66 J/K/mol
383.15 K, 18585 kPa	221.26 J/K/mol
383.15 K, 18586 kPa	221.46 J/K/mol
384.15 K, 19120 kPa	220.66 J/K/mol
384.15 K, 19121 kPa	222.06 J/K/mol
385.15 K, 19655 kPa	218.86 J/K/mol
385.15 K, 19656 kPa	220.66 J/K/mol
386.15 K, 20189 kPa	221.06 J/K/mol
387.15 K, 20723 kPa	223.66 J/K/mol and 224.66 J/K/mol
388.15 K, 21256 kPa	224.66 J/K/mol and 224.06 J/K/mol
389.15 K, 21789 kPa	225.66 J/K/mol and 224.86 J/K/mol
390.15 K, 22322 kPa	226.86 J/K/mol and 224.86 J/K/mol
391.15 K, 22854 kPa	224.66 J/K/mol
391.15 K, 22855 kPa	228.46 J/K/mol
392.15 K, 23385 kPa	225.06 J/K/mol
392.15 K, 23386 kPa	227.06 J/K/mol
393.15 K, 23917 kPa	228.26 J/K/mol and 226.46 J/K/mol
394.15 K, 24448 kPa	226.26 J/K/mol and 223.66 J/K/mol
395.15 K, 24978 kPa	226.66 J/K/mol and 225.06 J/K/mol
396.15 K, 25507 kPa	229.06 J/K/mol
396.15 K, 25508 kPa	226.86 J/K/mol
397.15 K, 26037 kPa	228.06 J/K/mol
397.15 K, 26038 kPa	226.06 J/K/mol
398.15 K, 26566 kPa	229.06 J/K/mol
398.15 K, 26567 kPa	227.06 J/K/mol
399.15 K, 27094 kPa	227.06 J/K/mol
399.15 K, 27096 kPa	227.86 J/K/mol
400.15 K, 27622 kPa	228.66 J/K/mol
400.15 K, 27623 kPa	228.46 J/K/mol
401.15 K, 28150 kPa	229.66 J/K/mol
401.15 K, 28151 kPa	227.66 J/K/mol
402.15 K, 28677 kPa	226.66 J/K/mol
402.15 K, 28678 kPa	227.26 J/K/mol
403.15 K, 29204 kPa	229.26 J/K/mol
403.15 K, 29205 kPa	227.86 J/K/mol
404.15 K, 29730 kPa	227.86 J/K/mol
404.15 K, 29732 kPa	229.86 J/K/mol
